Experimental data from patent publication US8017364B2, “Solvent tolerant microorganisms” (Butamax(TM) Advanced Biofuels LLC, priority 2006, dated 2011).

Experiments:
PN1011 = settings: liquid medium, 37° C.
Protocol: (§1) The growth data was used to calculate the percent growth inhibition caused by 1-butanol by subtracting the percent growth ([…]; where T0OD600 is the initial optical density at the starting time and T5OD600 is the optical density after 5 h) from 100%.

PN1042 = settings: liquid medium, 37° C.
Protocol: as §1

[1] = tested on: most microorganisms described in the art; settings: liquid medium, 37° C.; cited from earlier work
[2] = tested on: Lactococcus lactis overexpressing GroESL; settings: GroESL overexpression; equals 0.4% weight/volume (w/v); cited from earlier work
[3] = tested on: Lactobacillus paracasei overexpressing GroESL; settings: GroESL overexpression; equals 0.4% weight/volume (w/v); cited from earlier work
[4] = tested on: identified tolerant strains; experiment: Expected growth on solid medium, inferred from IC50 values and correlation with 1-butanol tolerance; format: cell-based, Pediococcus

In the case of CCCCO [1-butanol], the “growth in the presence of 1-butanol” value (PN1011; PN1011, 3% (w/v) 1-butanol) is reported as “low levels of growth”, the percent growth inhibition (PN1011; PN1011, 3.5% (w/v) 1-butanol, OD600 over 5 h) is reported as 100% and the “growth in the presence of 1-butanol” value (PN1042; PN1042, 3% (w/v) 1-butanol) is reported as “low levels of growth”. The percent growth inhibition (PN1042; PN1042, 3.5% (w/v) 1-butanol, OD600 over 5 h) was 100%, the “concentration at which growth is totally inhibited” value [1] was “less than 2.0 % w/v” and the “concentration at which strain was able to grow” value [2] was 0.5 % volume/volume (v/v). The “concentration at which strain was able to grow” value [3] was 0.5 % volume/volume (v/v).
With CCC(C)O (stereo not shown) [2-butanol] the “concentration in solid medium on which strains are expected to grow” value (“concentration in solid medium” for short) [4] was 4.0 % w/v.
With CCC(C)=O [2-butanone] the “concentration in solid medium” value [4] was 6.0 % w/v.
For CC(C)CO [isobutanol], the “concentration in solid medium” value [4] was 3.5 % w/v.
